# According to patent US5880103A, “Immunomodulatory peptides” (President and Fellows of Harvard College, priority 1995, dated 1999):
# Target: T1, HLA-DR1 (Homo sapiens, UniProt P01903+P01911, A100R/D57E/F55L/F60I/F76Y/I96L/L162R/M171V/P40L/Q125E/R42F/V115G/Y59C)
# T1 construct: made in house; host or cells: Sf9 insect cells
# Test: Competition of synthetic peptides against 125I-labeled HA 307-319 for binding to "empty" HLA-DR1
Compound,Ki,"relative binding affinity to DR1 (in words) (competitor peptides vs HA 307-319, ""empty"" DR1, at first approximation)"
CSCC[C@H](NC(=O)[C@H](CCCNC(=N)N)NC(=O)[C@H](CCSC)NC(=O)[C@H](CCCCN)NC(=O)[C@H](CO)NC(=O)[C@@H](NC(=O)[C@@H]1CCCN1C(=O)[C@H](CCCCN)NC(=O)[C@@H]1CCCN1C(=O)[C@@H]1CCCN1C(=O)[C@H](CCCCN)NC(=O)[C@@H]1CCCN1C(=O)[C@@H](N)CC(C)C)C(C)C)C(=O)N[C@@H](C)C(=O)N[C@H](C(=O)O)[C@@H](C)O [Ii 97-111],> 10 µM,
Ii 107-120: invariant chain peptide named in the text as highest-affinity competitor; probably the Ii 106-120 entry of Table 2 (MRMATPLLMQALPM),,highest affinity of all the competitor peptides measured
